Counter-ions that a name gives are not always drawn. Blank lines part the entries; values can stand above or below the molecule they belong to.
How the values were obtained:
Type in all cases: biochemical
Aurora1 = target: T1, Aurora1 (Homo sapiens, UniProt Q96GD4); assay: Aurora1 enzymatic test, NuMA phosphorylation with [33P]ATP, Flashplate; details: Aurora-B/INCENP-C3 recombinant complex, 1 μM ATP
T1 construct: His tag (N); made in house
Description: (§1) The inhibitory effect of compounds with respect to the kinases Aurora1 and Aurora2 is determined by means of an enzymatic test using radioactivity detection.
(§2) The kinase activity of Aurora1 and Aurora2 is evaluated via the phosphorylation of the substrate Numa-histidine in the presence of radiolabelled ATP ([^33P]ATP) using 96-well Flashplate plates in which the nickel chelate is bound to the surface of the microplate. The amount of ^33P phosphate incorporated into the NuMA substrate is proportional to the activity of the enzyme Aurora1 or Aurora2.
Aurora1: Aurora-B/INCENP-C3 recombinant complex, purified to about 50%, the N-terminal end of Aurora-B of which has been labeled with histidine.
(§3) NuMA (nuclear protein that combines with the mitotic apparatus): 424-amino acid fragment, expressed in E. coli, the N-terminal end of which has been labeled with histidine, and used as substrate for the two Aurora enzymes.
(§4) The microplates used are 96-well Flash-Plate plates, nickel chelate (Perkin-Elmer, model SMP107).
(§5) The products to be evaluated are incubated in a reaction volume of 100 μL per well, in the presence of 10 nM of Aurora1 or Aurora2, 500 nM of NuMA substrate in a buffer composed of 50 mM Tris/HCl (pH 7.5), 50 mM NaCl, 5 mM MgCl2 (Aurora-B) or 10 mM MgCl2 (Aurora-A) and 1 mM DTT, at 37° C.
(§6) 80 μL of enzyme/substrate incubation buffer are distributed in each well, followed by 10 μL of product to be evaluated, at variable concentrations. The reaction is initiated by adding 1 μM final of ATP containing 0.2 μCi of [^33P]ATP (10 μL). After incubating for 30 minutes, the reaction is quenched by simple removal of the reaction buffer and each well is washed twice with 300 μl of Tris/HCl buffer. The radioactivity is then measured in each well using a Packard, Top-Count model scintillation machine.
(§7) The control enzymatic activity of Aurora is expressed by the number of counts per minute obtained over 30 minutes after subtracting the background noise (reaction mixture containing no enzyme). The evaluation of the various test products is expressed as a percentage of inhibition of the Aurora activity relative to the control.

Aurora2 = target: T2, Aurora2 (Homo sapiens, UniProt O14965); assay: Aurora2 enzymatic test, NuMA phosphorylation with [33P]ATP, Flashplate; details: whole recombinant protein, 1 μM ATP
T2 construct: Aurora2: whole recombinant protein comprising an N-terminal histidine tail; His tag (N); made in house; host or cells: E. coli
T2 sequence (O14965 1-403): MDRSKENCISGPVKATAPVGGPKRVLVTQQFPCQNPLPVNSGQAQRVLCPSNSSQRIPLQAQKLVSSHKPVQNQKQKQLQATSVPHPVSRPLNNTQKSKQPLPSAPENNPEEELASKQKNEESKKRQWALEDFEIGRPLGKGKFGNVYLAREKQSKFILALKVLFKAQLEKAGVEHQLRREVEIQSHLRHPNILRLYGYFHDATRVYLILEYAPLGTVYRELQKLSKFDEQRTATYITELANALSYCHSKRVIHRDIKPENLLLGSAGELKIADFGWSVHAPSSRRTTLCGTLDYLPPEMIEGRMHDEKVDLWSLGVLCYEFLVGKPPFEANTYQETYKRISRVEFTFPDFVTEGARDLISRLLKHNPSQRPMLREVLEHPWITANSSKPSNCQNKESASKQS
Description: as §1, §2
Aurora2: whole recombinant protein comprising an N-terminal histidine tail, was expressed in E. coli and purified to more than 82%.
as §3, §4, §5, §6, §7

CDK2/cycline E = target: T3, CDK2/cycline E (Homo sapiens, UniProt P24941); assay: CDK2/cyclineE Flashplate test in 96-well format; details: CDK2/cycline E complex, 1 μM ATP
T3 construct: made in house; host or cells: Sf21 insect cells (baculovirus coinfection)
Description: Two recombinant baculoviruses bearing the human sequences coding, respectively, for CDK2 and cyclineE (the latter bearing a C-terminal hexahistidine tag) are used to coinfect Sf21 insect cells. Two to three days after the start of coinfection, the cells are harvested by centrifugation and then stored at −40° C. until the time of use.
A format in streptavidin-coated 96-well plates is used to test the activity of the compounds on the kinase activity of CDK2/cycline E.
To perform this test, the biotinylated peptide substrate, a fragment of the protein pRb (biotinyl-[…]-OH), is dissolved at a concentration of 1 mM in kinase buffer (HEPES/NaOH 50 mM, NaCl 1 mM, MgCl2 5 mM, pH 7.5) in order to constitute a stock solution stored at −20° C. in the form of 110 μL aliquots. On the day of the experiment, an aliquot of this solution is thawed and diluted in kinase buffer containing 1 mM of dithiothreitol, added to the buffer extemporaneously, in order to obtain a concentration of 14.3 μM. 70 μL of this solution are added to each well of the Flashplate in order to obtain a final substrate concentration of 10 μM during the enzymatic reaction performed in a final volume of the reaction medium of 100 μL (cf. below).
Intermediate dilutions of inhibitors (products of the invention) at various concentrations are prepared in DMSO from stock solutions at 10 mM in separate tubes. Dilutions at 1000 μM, 333.3 μM, 111.1 μM, 37.03 μM, 12.35 μM, 4.11 μM and 1.37 μM are thus prepared. One μL of each of these solutions (or 1 μL of DMSO for the controls) is transferred into the wells of the test plate.
19 μl of a solution of a mixture of adenosine triphosphate (ATP) and of ATPγ^33P in kinase buffer at a total concentration of 5.26 μM of ATP and 52.6 μCi/ml of ^33P are then added to each well. The enzymatic reaction is initiated by adding 10 μL per well of a 200 nM solution of CDK2/cycline E in kinase buffer containing 1 mM of dithiothreitol (or 10 μL of kinase buffer containing 1 mM of dithiothreitol for the reaction blanks).
After addition of each of the reagents, the final volume of each well is 100 μL, the final concentration of substrate is 10 μM, the final inhibitor concentrations are 10 μM, 3.33 μM, 1.11 μM, 0.37 μM, 0.123 μM, 0.041 μM and 0.014 μM (according to the concentration of the intermediate dilution), the final ATP concentration is 1 μM, the final amount of ^33P is 1 μCi/well, and the final concentration of CDK2/cycline E complex is 20 nM.
After addition of all of the reagents, the test plate is incubated at 30° C. with orbital shaking at 650 rpm.
When the incubation is complete, the plate is washed three times with 300 μL per well of PBS (phosphate-buffered saline, pH=7.4, without calcium or magnesium, reference 10010-015, Gibco BRL). The incorporation of ^33P to the peptide is quantified by scintillation counting with a Packard Topcount.NXT machine.

Tie2 = target: T4, Tie2 (Homo sapiens, UniProt Q02763); assay: Tie2 kinase test, phosphorylation of PLC with GST-Tie2; details: GST-Tie2 intracellular domain 776-1124
T4 construct: amino acids of the intracellular domain 776-1124; made in house; host or cells: baculovirus expression (pFastBacGT vector)
T4 sequence (Q02763 776-1124): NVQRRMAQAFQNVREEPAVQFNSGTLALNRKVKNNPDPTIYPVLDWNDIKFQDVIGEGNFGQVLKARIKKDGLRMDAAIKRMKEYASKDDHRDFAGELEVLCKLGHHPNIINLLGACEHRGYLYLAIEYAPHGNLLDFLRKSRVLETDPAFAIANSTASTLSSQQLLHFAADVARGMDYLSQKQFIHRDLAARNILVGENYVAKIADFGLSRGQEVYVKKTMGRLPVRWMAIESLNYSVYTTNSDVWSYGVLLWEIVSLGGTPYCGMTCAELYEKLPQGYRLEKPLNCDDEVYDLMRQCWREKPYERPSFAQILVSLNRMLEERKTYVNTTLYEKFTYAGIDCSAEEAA
Description: The coding sequence of human Tie2 corresponding to the amino acids of the intracellular domain 776-1124 was generated by PCR using the cDNA isolated from a human placenta as a model. This sequence was introduced into a pFastBacGT baculovirus expression vector in the form of a GST fusion protein.
The inhibitory effect of the molecules is determined in a test of phosphorylation of PLC with Tie2 in the presence of GST-Tie2 purified to about 80% homogeneity. The substrate is composed of the SH2-SH3 fragments of PLC expressed in the form of a GST fusion protein.
The kinase activity of Tie2 is measured in a MOPS 20 mM pH 7.2 buffer, containing 10 mM MgCl2, 10 mM MnCl2, 1 mM DTT, 10 mM of glycerophosphate. In a 96-well FlashPlate plate maintained on ice, a reaction mixture is deposited, composed of 70 μL of kinase buffer containing 100 ng of enzyme GST-Tie2 per well. Next, 10 μL of the test molecule diluted in DMSO to a maximum concentration of 10% are added. For a given concentration, each measurement is performed four times. The reaction is initiated by adding 20 μL of solution containing 2 μg of GST-PLC, 2 μm of cold ATP and 1 μCi of ^33P[ATP]. After incubation for one hour at 37° C., the reaction is stopped by adding 1 volume (100 μl) of 200 mM EDTA. After removal of the incubation buffer, the wells are washed three times with 300 μL of PBS. The radioactivity is measured on a MicroBeta1450 Wallac.
The inhibition of the Tie2 activity is calculated and expressed as a percentage of inhibition relative to the control activity determined in the absence of compound.

T1 sequence (Q96GD4 whole entry, species assumed): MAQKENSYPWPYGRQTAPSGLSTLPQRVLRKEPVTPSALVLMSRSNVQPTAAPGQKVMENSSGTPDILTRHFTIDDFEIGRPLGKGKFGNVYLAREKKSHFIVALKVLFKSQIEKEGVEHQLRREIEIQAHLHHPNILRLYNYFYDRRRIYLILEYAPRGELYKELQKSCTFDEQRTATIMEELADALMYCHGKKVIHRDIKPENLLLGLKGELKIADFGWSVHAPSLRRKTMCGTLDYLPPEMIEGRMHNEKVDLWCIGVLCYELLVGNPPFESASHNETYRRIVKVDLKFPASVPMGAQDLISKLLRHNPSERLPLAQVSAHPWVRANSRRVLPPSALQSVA
T1 sequence (Q9NQS7 835-903 partner limits assumed, species assumed): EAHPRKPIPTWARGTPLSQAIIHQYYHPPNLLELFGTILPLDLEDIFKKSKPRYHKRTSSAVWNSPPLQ

IC50 (Aurora1): 158 nM
IC50 (Aurora2): 19 nM
IC50 (CDK2/cycline E): 166 nM
IC50 (Tie2): 737 nM
Structure (SMILES): CC1CN(Cc2ccc(C(=O)Nc3n[nH]c4sc(C(=O)NN(C)c5ccccc5)cc34)cc2)CCN1 (stereo not shown) [Example 14a, N-[5-(N′-methyl-N′-phenylhydrazinocarbonyl)-1H-thieno[2,3-c]pyrazol-3-yl]-4-(3-methylpiperazin-1-ylmethyl)benzamide]

IC50 (Aurora1): 148 nM
IC50 (Aurora2): 44 nM
IC50 (CDK2/cycline E): 46 nM
IC50 (Tie2): 425 nM
Structure (SMILES): CC1CN(Cc2ccc(C(=O)Nc3n[nH]c4sc(C(=O)NN(C)c5ccc(Cl)cc5)cc34)cc2)CCN1 (stereo not shown) [Example 14b, N-{5-[N′-(4-chlorophenyl)-N′-methylhydrazinocarbonyl]-1H-thieno[2,3-c]pyrazol-3-yl}-4-(3-methylpiperazin-1-ylmethyl)benzamide]

IC50 (Aurora1): 114 nM
IC50 (Aurora2): 12 nM
IC50 (CDK2/cycline E): 210 nM
IC50 (Tie2): 623 nM
Structure (SMILES): CCN(CC)Cc1ccc(C(=O)Nc2n[nH]c3sc(C(=O)NN(C)c4ccccc4)cc23)cc1 [Example 15a, 4-diethylaminomethyl-N-[5-(N′-methyl-N′-phenylhydrazinocarbonyl)-1H-thieno[2,3-c]pyrazol-3-yl]benzamide trifluoroacetate]

IC50 (Aurora1): 329 nM
IC50 (Aurora2): 37 nM
IC50 (CDK2/cycline E): 82 nM
IC50 (Tie2): 393 nM
Structure (SMILES): CCN(CC)Cc1ccc(C(=O)Nc2n[nH]c3sc(C(=O)NN(C)c4ccc(Cl)cc4)cc23)cc1 [Example 15b, N-{5-[N′-(4-chlorophenyl)-N′-methylhydrazinocarbonyl]-1H-thieno[2,3-c]pyrazol-3-yl}-4-diethylaminomethylbenzamide]

IC50 (Aurora1): 992 nM
IC50 (Aurora2): 301 nM
IC50 (CDK2/cycline E): 942 nM
IC50 (Tie2): 3210 nM
Structure (SMILES): CN1CCN(Cc2cccc(C(=O)Nc3n[nH]c4sc(C(=O)NN(C)c5ccccc5)cc34)c2)CC1 [Example 16a, N-[5-(N′-methyl-N′-phenylhydrazinocarbonyl)-1H-thieno[2,3-c]pyrazol-3-yl]-3-(4-methylpiperazin-1-ylmethyl)-benzamide]

IC50 (Aurora1): 936 nM
IC50 (Aurora2): 606 nM
IC50 (CDK2/cycline E): 301 nM
IC50 (Tie2): 2010 nM
Structure (SMILES): CN1CCN(Cc2cccc(C(=O)Nc3n[nH]c4sc(C(=O)NN(C)c5ccc(Cl)cc5)cc34)c2)CC1 [Example 16b, N-[5-(N′-(4-chlorophenyl)-N′-methylhydrazinocarbonyl)-1H-thieno[2,3-c]pyrazol-3-yl]-3-(4-methylpiperazin-1-ylmethyl)benzamide]

Further lines, the molecule ahead of its results:

Structure (SMILES): CN1CCCN(Cc2ccc(C(=O)Nc3n[nH]c4sc(C(=O)NN(C)c5ccccc5)cc34)cc2)CC1 [Example 12a, 4-(4-methylperhydro-1,4-diazepin-1-ylmethyl)-N-[5-(N′-methyl-N′-phenylhydrazinocarbonyl)-1H-thieno[2,3-c]-pyrazol-3-yl]benzamide]
IC50 (Aurora1): 128 nM
IC50 (Aurora2): 31 nM
IC50 (CDK2/cycline E): 126 nM
IC50 (Tie2): 564 nM

Structure (SMILES): CN1CCCN(Cc2ccc(C(=O)Nc3n[nH]c4sc(C(=O)NN(C)c5ccc(Cl)cc5)cc34)cc2)CC1 [Example 12b, 4-(4-methylperhydro-1,4-diazepin-1-ylmethyl)-N-[5-(N′-(4-chlorophenyl)-N′-methylhydrazinocarbonyl)-1H-thieno[2,3-c]pyrazol-3-yl]benzamide]
IC50 (Aurora1): 151 nM
IC50 (Aurora2): 68 nM
IC50 (CDK2/cycline E): 40 nM
IC50 (Tie2): 218 nM

Structure (SMILES): CN(NC(=O)c1cc2c(NC(=O)c3ccc(CN4CCNCC4)cc3)n[nH]c2s1)c1ccccc1 [Example 13a, N-[5-(N′-methyl-N′-phenylhydrazinocarbonyl)-1H-thieno[2,3-c]pyrazol-3-yl]-4-piperazin-1-ylmethylbenzamide]
IC50 (Aurora1): 141 nM
IC50 (Aurora2): 23 nM
IC50 (CDK2/cycline E): 151 nM
IC50 (Tie2): 679 nM

Structure (SMILES): CN(NC(=O)c1cc2c(NC(=O)c3ccc(CN4CCNCC4)cc3)n[nH]c2s1)c1ccc(Cl)cc1 [Example 13b, N-{5-[N′-(4-chlorophenyl)-N′-methylhydrazinocarbonyl]-1H-thieno[2,3-c]pyrazol-3-yl}-4-piperazin-1-ylmethylbenzamide]
IC50 (Aurora1): 182 nM
IC50 (Aurora2): 85 nM
IC50 (CDK2/cycline E): 49 nM
IC50 (Tie2): 324 nM
